Calls of active or inactive are those of the source. The calls are words filed in the database; no cut-off is given here.
What was measured:
[1] = Inhibition of fungal FcyB expressed in Aspergillus nidulans assessed as reduction in FcyB-mediated [2,8-3H]-adenine accumulation; set-up: species or system Fungi
[2] = target: Uric acid-xanthine permease (Emericella nidulans (strain FGSC A4 / ATCC 38163 / CBS 112.46 / NRRL194 / M139) (Aspergillus nidulans)) (UniProt Q07307); experiment: Inhibition of fungal UapA expressed in Aspergillus nidulans assessed as reduction in UapA-mediated [8-3H]-xanthine accumulation at 0.5 mM; details: Fungi
Sequence of Uric acid-xanthine permease (Emericella nidulans (strain FGSC A4 / ATCC 38163 / CBS 112.46 / NRRL194 / M139) (Aspergillus nidulans)) (Q07307 whole entry, looked up): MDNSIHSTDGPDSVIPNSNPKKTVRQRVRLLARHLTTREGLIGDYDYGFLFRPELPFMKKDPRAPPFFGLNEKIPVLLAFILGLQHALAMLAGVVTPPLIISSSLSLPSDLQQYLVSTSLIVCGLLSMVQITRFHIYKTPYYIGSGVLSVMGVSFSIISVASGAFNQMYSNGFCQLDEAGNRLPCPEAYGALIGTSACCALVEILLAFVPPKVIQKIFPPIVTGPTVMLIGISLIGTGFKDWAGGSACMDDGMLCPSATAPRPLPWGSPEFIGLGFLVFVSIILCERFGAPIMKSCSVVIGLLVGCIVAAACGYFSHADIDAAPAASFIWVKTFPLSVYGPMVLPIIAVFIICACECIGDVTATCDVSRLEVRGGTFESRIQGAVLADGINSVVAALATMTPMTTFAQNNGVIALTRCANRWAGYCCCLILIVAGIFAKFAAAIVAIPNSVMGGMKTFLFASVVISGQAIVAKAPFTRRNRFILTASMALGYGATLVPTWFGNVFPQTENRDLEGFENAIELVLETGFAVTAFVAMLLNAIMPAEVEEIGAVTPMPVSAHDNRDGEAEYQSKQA

Fungi [3] = experiment: Inhibition of fungal FcyB expressed in Aspergillus nidulans assessed as FcyB-mediated [2,8-3H]-adenine accumulation rate at 500 uM relative to untreated control; set-up: scale not given: the % may be the effect or the level left
Fungi [4] = experiment: Inhibition of fungal FcyB expressed in Aspergillus nidulans assessed as reduction in FcyB-mediated at 0.5 mM
[5] = target: T1, Uncharacterized protein (Emericella nidulans (strain FGSC A4 / ATCC 38163 / CBS 112.46 / NRRL194 / M139) (Aspergillus nidulans)) (UniProt G5EB00); experiment: Inhibition of fungal AzgA expressed in Aspergillus nidulans assessed as reduction in AzgA-mediated [2,8-3H]-adenine accumulation at 0.5 mM; details: Fungi
T1 sequence (whole entry): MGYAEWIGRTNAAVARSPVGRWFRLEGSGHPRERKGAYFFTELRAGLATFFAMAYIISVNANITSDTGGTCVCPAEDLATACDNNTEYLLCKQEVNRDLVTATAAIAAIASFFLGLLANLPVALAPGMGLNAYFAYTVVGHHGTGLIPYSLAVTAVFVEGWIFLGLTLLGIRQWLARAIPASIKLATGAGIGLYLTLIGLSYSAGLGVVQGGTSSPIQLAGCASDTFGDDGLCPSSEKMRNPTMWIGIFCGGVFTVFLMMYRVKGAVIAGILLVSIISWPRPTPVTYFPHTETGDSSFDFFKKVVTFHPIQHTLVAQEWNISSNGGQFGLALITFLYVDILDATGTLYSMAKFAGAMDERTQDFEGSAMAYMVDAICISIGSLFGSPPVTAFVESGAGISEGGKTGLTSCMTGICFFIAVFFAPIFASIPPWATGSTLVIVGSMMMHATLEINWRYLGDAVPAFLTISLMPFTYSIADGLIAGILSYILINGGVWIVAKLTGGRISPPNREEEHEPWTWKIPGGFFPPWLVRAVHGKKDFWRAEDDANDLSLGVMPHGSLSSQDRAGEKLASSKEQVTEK

Uncharacterized protein = target: T2, Uncharacterized protein (Emericella nidulans (strain FGSC A4 / ATCC 38163 / CBS 112.46 / NRRL194 / M139) (Aspergillus nidulans), UniProt G5EB00); experiment: Inhibition of fungal AzgA expressed in Aspergillus nidulans assessed as reduction in AzgA-mediated [2,8-3H]-adenine accumulation; set-up: species or system Fungi
T2 sequence (G5EB00 whole entry): T1 sequence (whole entry)

Ki [1] | inhibition [2] | Structure (SMILES) | also measured
100 µM | inactive | COc1ccc(OC)c(-c2nc3c(N4CCN(C)CC4)nccc3[nH]2)c1 | Activity (Fungi [3]): < 10%
49 µM | inactive | CN1CCN(c2nccc3[nH]c(-c4ccccc4O)nc23)CC1 | Activity (Fungi [3]): < 10%
5 µM |  | CC(C)n1cnc2c(NCc3ccccc3)nccc21 | 
 | inactive | COc1ccc(OC)c(-c2nc3c(N)ccnc3n2Cc2ccccc2)c1 | inhibition (Fungi [4]): inactive
 | inactive | Nc1ccnc2c1nc(-c1ccccc1O)n2Cc1ccccc1 | inhibition (Fungi [4]): inactive
72 µM | inactive | c1ccc(CNc2nccc3[nH]c(-c4ccncc4)nc23)cc1 | inhibition [5]: Active; Activity (Fungi [3]): < 10%
106 µM | inactive | CN1CCN(c2nccc3[nH]c(-c4ccc([N+](=O)[O-])cc4)nc23)CC1 | inhibition [5]: Active
 | inactive | CN1CCN(c2nccc3c2nc(-c2ccncc2)n3Cc2ccncc2)CC1 | 
 | inactive | O=[N+]([O-])c1ccc(-c2nc3c(NCc4ccccc4)nccc3[nH]2)cc1 | 
 | inactive | Nc1ccnc2c1nc(S)n2Cc1ccccc1 | inhibition (Fungi [4]): inactive
82 µM | inactive | Oc1ccccc1-c1nc2c(NCc3ccccc3)nccc2[nH]1 | inhibition [5]: Active; Ki (Uncharacterized protein): 58 µM; Activity (Fungi [3]): < 10%
74 µM | inactive | Oc1nc2c(NCc3ccccc3)nccc2[nH]1 | 
 | inactive | CN1CCN(c2nccc3c2nc(-c2ccccc2O)n3Cc2ccccc2O)CC1 | inhibition (Fungi [4]): inactive
38 µM |  | CN1CCN(c2nccc3c2ncn3C2CCCC2)CC1 | 
 | inactive | Nc1ccnc2c1nc(-c1ccc([N+](=O)[O-])cc1)n2Cc1ccccc1 | inhibition (Fungi [4]): inactive
42 µM | inactive | COc1ccc(OC)c(-c2nc3c(NCc4ccccc4)nccc3[nH]2)c1 | inhibition [5]: Active; Activity (Fungi [3]): < 10%
 | inactive | Nc1ccnc2c1nc(-c1ccncc1)n2Cc1ccccc1 | inhibition (Fungi [4]): inactive
7 µM |  | Nc1[nH]cnc2ncnc1-2 [ADENINE] | 
 | inactive | Sc1nc2c(NCc3ccccc3)nccc2[nH]1 | 
 | inactive | CN1CCN(c2nccc3[nH]c(S)nc23)CC1 | 
 | inactive | CN1CCN(c2nccc3[nH]c(-c4ccncc4)nc23)CC1 | 
 | inactive | Nc1ccnc2c1nc(O)n2Cc1ccccc1 | inhibition (Fungi [4]): inactive

Structure (SMILES) | Ki [1] | inhibition [2] | also measured
CN1CCN(c2nccc3[nH]c(O)nc23)CC1 | 19 µM | inactive | Activity (Fungi [3]): < 10%
O=c1[nH]cnc2nc[nH]c12 [HYPOXANTHINE] | 11 µM |  | 

Reference: ChEMBL document CHEMBL4152333, “Structure-activity relationships in fungal nucleobases transporters as dissected by the inhibitory effects of novel purine analogues” (Eur J Med Chem, 2018)
